According to US20030166202A1, “P450 Monooxygenases of the cyp79 family” (priority 2000, published 2003):
Read-outs that look alike come from different tables or passages of the source.

Tests used:
[1] = target: CYP79F1 (Arabidopsis thaliana, UniProt Q949U1, M2A); conditions: E. coli C43(DE3) spheroplasts, GC-MS or TLC
Description: In a typical enzyme assay, 5 μl spheroplasts and 4 μl NADPH:cytochrome P450 reductase (equivalent to 0.04 units defined as 1 μmol cytochrome c/min) are incubated with substrate in buffer containing 30 mM KPi, pH 7.5, 3 mM NADPH, 3 mM reduced glutathione, 0.042% Tween 80, 1 mg ml^−1 L-α-dilauroylphosphatidylcholine in a total volume of 30 μl. Reaction mixtures containing spheroplasts of E. coli C43(DE3) transformed with empty vector are used as controls in all assays. 3.3 μM L-[U-^14C]phenylalanine (453 mCi/mmol; Pharmacia), 3.7 μM L-[U-^14C]tyrosine (449 mCi/mmol; Pharmacia), 0.1 mM L-[methyl-^14C]methionine (56 mCi/mmol; Pharmacia), and 24 μM L-[side chain-3-^14C]tryptophan (56.5 mCi/mmol; NEN) are tested as potential substrates. After incubation at 28° C. for 1 hour, half of the reaction mixture is analyzed by TLC on Silica Gel 60 F254 sheets (Merck) using toluene/ethyl acetate 5:1 (v/v) as eluent. Radiolabelled bands are visualized and quantified using a STORM 840 phosphoimager (Pharmacia). For GC-MS analysis, 450 μl reaction mixture containing 3.3 mM L-methionine (Sigma), 3.3 mM DL-dihomomethionine or 3.3 mM DL-trihomomethionine, respectively, are incubated for 4 hours at 25° C. and extracted with a total volume of 600 μl CHCl3. The organic phase is collected, evaporated, and the residue is dissolved in 15 μl CHCl3 and analyzed by GC-MS. […] An SGE column (BPX5, 25 m×0.25 mm, 0.25 μm film thickness) is used (heat pressure 100 kPa, splitless injection). The oven temperature program is as follows: 80° C. for 3 minutes, 80° C. to 180° C. at 5° C. min^−1, 180° C. to 300° C. at 20° C. min^−1, and 300° C. for 10 min. The ion source is run in EI mode (70 eV) at 200° C. […] DL-dihomomethionine, DL-trihomomethionine, 5-methylthiopentanaldoxime and 6-methylthiohexanaldoxime are synthesized as described (Dawson et al, J. Biol. Chem. 268: 27154-27159, 1993) and authenticated by NMR spectroscopy.

[2] = target: T1, CYP79A2 (Arabidopsis thaliana, UniProt Q9FLC8); test: CYP79A2 activity in E. coli spheroplasts reconstituted with NADPH:cytochrome P450 oxidoreductase
T1 sequence (Q9FLC8 7-529 limits assumed): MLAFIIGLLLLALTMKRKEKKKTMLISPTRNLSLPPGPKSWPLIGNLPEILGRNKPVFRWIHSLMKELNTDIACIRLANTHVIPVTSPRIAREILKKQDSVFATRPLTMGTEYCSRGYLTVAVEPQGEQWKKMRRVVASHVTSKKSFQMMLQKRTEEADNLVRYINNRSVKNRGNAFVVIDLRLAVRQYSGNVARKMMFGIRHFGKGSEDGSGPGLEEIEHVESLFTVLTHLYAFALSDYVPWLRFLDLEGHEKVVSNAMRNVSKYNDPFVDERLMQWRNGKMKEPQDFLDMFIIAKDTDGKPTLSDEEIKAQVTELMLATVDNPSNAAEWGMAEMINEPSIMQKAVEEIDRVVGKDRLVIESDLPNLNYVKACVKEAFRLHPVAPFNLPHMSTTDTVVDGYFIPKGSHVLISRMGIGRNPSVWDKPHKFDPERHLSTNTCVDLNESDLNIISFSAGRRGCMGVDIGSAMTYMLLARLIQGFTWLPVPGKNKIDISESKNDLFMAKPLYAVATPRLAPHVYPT

[3] = target: T2, CYP79B2 (Arabidopsis thaliana, UniProt O81346); test: CYP79B2 activity in E. coli spheroplasts reconstituted with NADPH:cytochrome P450 reductase
T2 sequence (O81346 1-541): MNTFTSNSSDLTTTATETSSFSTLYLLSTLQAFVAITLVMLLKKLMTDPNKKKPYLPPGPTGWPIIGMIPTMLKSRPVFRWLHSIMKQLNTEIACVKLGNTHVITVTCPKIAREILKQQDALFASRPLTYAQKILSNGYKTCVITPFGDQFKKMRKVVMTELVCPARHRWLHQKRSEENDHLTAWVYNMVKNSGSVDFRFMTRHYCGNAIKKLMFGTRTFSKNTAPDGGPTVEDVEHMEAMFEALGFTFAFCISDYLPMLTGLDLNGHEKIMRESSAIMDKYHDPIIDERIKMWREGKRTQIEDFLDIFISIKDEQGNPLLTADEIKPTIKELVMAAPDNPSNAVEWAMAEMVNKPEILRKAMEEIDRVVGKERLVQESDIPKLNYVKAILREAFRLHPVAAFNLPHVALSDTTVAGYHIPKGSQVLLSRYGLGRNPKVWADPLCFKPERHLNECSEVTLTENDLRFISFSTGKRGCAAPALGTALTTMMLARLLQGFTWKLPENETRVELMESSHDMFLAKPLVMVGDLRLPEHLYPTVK
Description: The activity of CYP79B2 is measured by reconstituting spheroplasts from E. coli expressing CYP79B2 with purified NADPH:cytochrome P450 reductase from Sorghum bicolor (L.) Moench. […] The reaction is incubated at 34° C. for 30 minutes, extracted two times with ethyl acetate and the ethyl acetate phase is analyzed by TLC using toluen:ethyl acetate 5:1 as eluent. Radiolabelled bands are visualized on a Storm 840 phosphorimager (Molecular Dynamics) and quantified with ImageQuant analysis software (Molecular Dynamics). Substrate specificity is investigated by substituting the ^14C-labelled tryptophan with ^14C-labelled tyrosine or phenylalanine. GC-MS is employed to verify the structure of the compound produced from tryptophan by recombinant CYP79B2. A 450 μl reaction mixture as described above containing 2 mM unlabelled tryptophan is incubated at 34° C. for 2 hours. The reaction mixture is extracted twice with 300 μl CHCl3 and lyophilized until dryness. GC-MS is performed with an HP5890 Series II gas chromatograph coupled to a Jeol JMS-AX505W mass spectrometer. Splitless injection on an SGE column (BPX5, 25 mm×0.25 mm, 0.25 μm film thickness) and a head pressure of 100 kPa are used.
Single colonies are grown overnight at 37° C. in LB medium containing 100 μg/ml ampicillin. 1 ml of the overnight culture is used to inoculate 75 ml TB medium containing 100 μg/ml ampicillin, 75 μg/ml δ-aminolevulinic acid, 1 mM thiamine and 1 mM IPTG. The TB cultures are grown for 44 hours at 125 rpm and 28° C.

[4] = tested on: cassava microsomes; test: Metabolism of amino acids by cassava microsomes; format: biochemical; conditions: amino acid as substrate
[5] = target: CYP79D1 (Manihot esculenta, UniProt Q9M7B8); conditions: for inhibition of CYP79D1 val-oxime formation: reconstitution in presence of inhibitor
CYP79D1, sequence (Q9M7B8 2-542): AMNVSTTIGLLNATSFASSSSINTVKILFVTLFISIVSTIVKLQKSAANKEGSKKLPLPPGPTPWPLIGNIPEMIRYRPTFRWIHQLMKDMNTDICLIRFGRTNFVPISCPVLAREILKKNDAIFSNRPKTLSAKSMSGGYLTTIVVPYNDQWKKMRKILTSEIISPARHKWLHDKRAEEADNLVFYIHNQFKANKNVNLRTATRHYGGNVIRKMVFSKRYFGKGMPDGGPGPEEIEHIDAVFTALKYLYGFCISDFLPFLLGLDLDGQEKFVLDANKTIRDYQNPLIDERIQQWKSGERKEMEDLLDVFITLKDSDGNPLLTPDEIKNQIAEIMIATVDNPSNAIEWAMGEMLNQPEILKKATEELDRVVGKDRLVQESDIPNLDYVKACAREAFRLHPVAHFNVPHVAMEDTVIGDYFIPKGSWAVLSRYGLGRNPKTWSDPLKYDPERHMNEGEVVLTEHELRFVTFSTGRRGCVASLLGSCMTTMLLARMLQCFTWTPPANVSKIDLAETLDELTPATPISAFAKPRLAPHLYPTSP
Description: Isolated, recombinant CYP79D1 is reconstituted and its catalytic activity determined in vitro using reaction mixtures with a total volume of 30 μl containing 2.5 pmol CYP79D1, 0.05 U NADPH P450-oxidoreductase (Benveniste et al, Biochem J 235: 365-373, 1986), 10.6 mM L-α-dioleyl phosphatidylcholine, 0.35 μCi [U-^14C]-L-amino acid (L-Val, L-Ile, L-Leu, L-Tyr or L-Phe; Amersham, Sweden), 1 mM NADPH, 0.1 M NaCl and 20 mM KPi pH 7.9. In assays containing ^14C-L-valine or ^14C-L-isoleucine, different amounts of unlabeled L- and D-amino acids (0-6 mM) are added. After incubation for 10 minutes at 30° C. the products formed are extracted into 60 μl ethyl acetate and separated on TLC sheets (Merck Kieselgel 60F254) using n-pentane/diethyl ether (50:50, v/v) or toluene/ethyl acetate (5:1, v/v) as eluents for aliphatic compounds and aromatic compounds, respectively. ^14C-labeled oximes are visualized and quantified using a STORM 840 phosphor imager (Molecular Dynamics, CA, USA). The activity of CYP79D1 is additionally measured in the presence of the inhibitors tetcyclasis, ABT and DPI under the same conditions as described above. For in vivo activity assays 200 μl P. pastoris cells are pelleted and resuspended in 100 μl 50 mM Tricine pH 7.9 and 0.35 μCi [U-^14C]-L-valine or L-isoleucine. After incubation for 30 minutes at 30° C. the cells are extracted with ethyl acetate and the products formed are analyzed as above.
CYP79D1 is reconstituted with sorghum NADPH-P450 oxidoreductase in the presence of high amounts of the lipid L-α-dioleyl phosphatidylcholine and 100 mM NaCl. […] To examine the effect of inhibitors on isolated CYP79D1, reconstitutions are performed in the presence of tetcyclasis, ABT and DPI using the same conditions as for cassava microsomes.

[6] = target: T3, CYP79D2 (Manihot esculenta, UniProt Q9M7B7); format: biochemical, cassava
T3 construct: made in house
T3 sequence (Q9M7B7 whole entry): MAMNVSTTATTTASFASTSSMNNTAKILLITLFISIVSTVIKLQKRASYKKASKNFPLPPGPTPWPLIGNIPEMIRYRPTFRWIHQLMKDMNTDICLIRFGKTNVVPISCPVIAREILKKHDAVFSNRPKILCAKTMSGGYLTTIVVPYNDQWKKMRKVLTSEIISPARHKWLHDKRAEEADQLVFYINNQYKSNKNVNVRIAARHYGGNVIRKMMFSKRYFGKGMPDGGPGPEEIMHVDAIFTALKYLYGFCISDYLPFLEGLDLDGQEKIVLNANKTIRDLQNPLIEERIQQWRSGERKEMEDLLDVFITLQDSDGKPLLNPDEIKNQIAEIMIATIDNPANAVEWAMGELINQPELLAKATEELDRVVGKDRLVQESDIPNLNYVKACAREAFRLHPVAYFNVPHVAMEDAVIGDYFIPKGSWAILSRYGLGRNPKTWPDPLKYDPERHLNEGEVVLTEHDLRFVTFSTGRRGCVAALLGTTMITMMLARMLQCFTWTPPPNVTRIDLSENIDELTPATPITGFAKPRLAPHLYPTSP
Description: Investigations into the substrate specificity of CYP79D1, CYP79D2, CYP79E1, CYP79E2, CYP79A2, CYP79B2, CYP79B5 and CYP79F1 are carried out in E. coli spheroplasts reconstituted with sorghum NADPH-cytochrome P450 oxidoreductase in the presence of high amounts of lipids. L-α-dioleyl phosphatidyl choline and L-α-dilauroyl phosphatidyl choline are preferred lipids for the reconstitution. […] Depending on the nature of the substrate, substrate specificity may also be determined using intact P. pastoris cells or intact E. coli cells.
The ability of a P450 monooxygenase to convert an aliphatic or aromatic amino acid or chain-elongated methionine homologue to the corresponding oxime can be tested in an assay (see also example 5) comprising
a) incubating a reaction mixture comprising the P450 monooxygenase of the present invention or spheroplasts of E.coli cells expressing said enzyme, the parent amino acid, NADPH, oxygen, NADPH-cytochrome P450 oxidoreductase and lipid at ambient temperature for a certain period of time which is between 2 min and 2 to 6 hours;
b) terminating the reaction for example by the addition of a denaturing compounds such as ethyl acetate; and
c) chemically identifying and quantifying the aldoxime produced.

CYP79F1, sequence (Q949U1 whole entry M2A): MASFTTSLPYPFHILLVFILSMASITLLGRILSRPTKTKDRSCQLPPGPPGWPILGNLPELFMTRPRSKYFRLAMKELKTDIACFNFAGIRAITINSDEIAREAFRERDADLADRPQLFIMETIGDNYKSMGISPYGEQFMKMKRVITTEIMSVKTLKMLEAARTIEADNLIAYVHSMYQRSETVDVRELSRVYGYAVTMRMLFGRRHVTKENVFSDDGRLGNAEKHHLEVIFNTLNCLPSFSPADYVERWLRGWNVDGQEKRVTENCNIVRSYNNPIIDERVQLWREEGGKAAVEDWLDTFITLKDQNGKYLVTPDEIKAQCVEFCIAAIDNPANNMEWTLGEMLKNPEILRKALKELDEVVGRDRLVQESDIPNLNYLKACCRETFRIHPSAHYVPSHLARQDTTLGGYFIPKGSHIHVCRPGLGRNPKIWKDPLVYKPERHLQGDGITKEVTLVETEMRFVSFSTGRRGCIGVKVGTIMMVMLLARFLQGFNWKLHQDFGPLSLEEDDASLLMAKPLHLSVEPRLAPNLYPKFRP

## CSCCCCC(N)C(=O)O (racemic) [DL-dihomomethionine]
[1]
  formation of the corresponding aldoxime by CYP79F1: two compounds, which are not present in the control reactions, are detected by GC-MS

## NC(CCc1ccccc1)C(=O)O (racemic) [DL-homophenylalanine]
[2]
  production of the respective aldoxime by CYP79A2: absence of detectable amounts of the homophenylalanine-derived aldoxime

## CSCCCCCC(N)C(=O)O (racemic) [DL-trihomomethionine]
[1]
  formation of the corresponding aldoxime by CYP79F1: two compounds with retention times and fragmentation pattern identical with those of the E/Z-isomers of the synthetic 6-methylthiopentanaldoxime are detected

## Oc1ccc(Cl)cc1Cl [2,4-dichlorophenol, reference compound]
[3]; 100 mM H2O2, 1 mM MnCl2 or 800 μM 2,4-dichlorophenol added to reconstitution assay
  inhibition of CYP79B2 activity: 72%

## CC[C@@H](C)[C@@H](N)C(=O)O [D-isoleucine]
[4]
  metabolism / cyanide production by cassava microsomes: no metabolism is observed

## CC(C)[C@@H](N)C(=O)O [D-valine]
[5]
  binding to the active site of CYP79D1 (competition with 14C-L-valine): does not bind with high affinity
  formation of the corresponding oxime / metabolism by CYP79D1: neither the cassava microsomes nor isolated CYP79D1 metabolize
[4]
  metabolism / cyanide production by cassava microsomes: no metabolism is observed

## c1ccc2c(c1)[I+]c1ccccc1-2 [DPI, reference compound]
[5]
  inhibition of CYP79D1 val-oxime formation: completely inhibits

## CC[C@H](C)[C@H](N)C(=O)O [L-isoleucine]
[5]
  conversion rate relative to L-valine: approximately 60%
  formation of the corresponding oxime / metabolism by CYP79D1: corresponding oximes are formed
[6]
  conversion to the corresponding oxime by CYP79D2: found to convert
[4]
  metabolism / cyanide production by cassava microsomes: cyanide is produced

## CSCC[C@H](N)C(=O)O [L-methionine]
[2]
  production of the respective aldoxime by CYP79A2: does not result in production of detectable amounts of the respective aldoximes
[1]
  formation of the corresponding aldoxime by CYP79F1: did not result in the formation of detectable amounts of the corresponding aldoximes

## N[C@@H](Cc1ccccc1)C(=O)O [L-phenylalanine]
[2]; TLC or GC-MS detection
  production of the respective aldoxime by CYP79A2: produce two radiolabelled compounds which comigrate with the (E)- and (Z)-isomers of phenylacetaldoxime
[1]
  formation of the corresponding aldoxime by CYP79F1: did not result in the formation of detectable amounts of the corresponding aldoximes
[6]
  conversion to the corresponding oxime by CYP79D2: Neither L-Leucine, L-phenylalanine nor L-tyrosine are metabolized
[3]; radiolabelled amino acid, TLC
  oxime production by CYP79B2: No oxime producing activity is detected

## CC(C)[C@H](N)C(=O)O [L-valine]
[5]
  formation of the corresponding oxime / metabolism by CYP79D1: corresponding oximes are formed
[6]
  conversion to the corresponding oxime by CYP79D2: found to convert
[4]
  metabolism / cyanide production by cassava microsomes: cyanide is produced

## CCCCCCCC/C=C\CCCCCCCC(=O)OCCOCC(OCCO)C1OCC(OCCO)C1OCCO (centres unmarked) [Tween 80]
[2]; additive at final concentration 0.083% (v/v)
  increase in aldoxime production: 1.5 fold

## N[C@@H](CCC(=O)N[C@@H](CS)C(=O)NCC(=O)O)C(=O)O [reduced glutathione]
[2]; additive at final concentration 3 mM
  effect on aldoxime production: stimulates aldoxime production, but to a lesser extent
[3]; addition of 1.5 mM
  increase of CYP79B2 activity: 1.8 fold

## Clc1ccc(N2N=NC3C4CC(C5N=NC45)C32)cc1 (centres unmarked) [tetcyclasis, reference compound]
[5]
  inhibition of CYP79D1 val-oxime formation: inhibited
